Measured values taken from ChEMBL document CHEMBL1126029, “Definition and display of steric, hydrophobic, and hydrogen-bonding properties of ligand binding sites in proteins using Lee and Richards accessible surface: validation of a high-resolution graphical tool for drug design” (J Med Chem, 1992).

Target: T1, Thermolysin (Bacillus thermoproteolyticus, UniProt P00800)
T1 sequence (P00800 whole entry): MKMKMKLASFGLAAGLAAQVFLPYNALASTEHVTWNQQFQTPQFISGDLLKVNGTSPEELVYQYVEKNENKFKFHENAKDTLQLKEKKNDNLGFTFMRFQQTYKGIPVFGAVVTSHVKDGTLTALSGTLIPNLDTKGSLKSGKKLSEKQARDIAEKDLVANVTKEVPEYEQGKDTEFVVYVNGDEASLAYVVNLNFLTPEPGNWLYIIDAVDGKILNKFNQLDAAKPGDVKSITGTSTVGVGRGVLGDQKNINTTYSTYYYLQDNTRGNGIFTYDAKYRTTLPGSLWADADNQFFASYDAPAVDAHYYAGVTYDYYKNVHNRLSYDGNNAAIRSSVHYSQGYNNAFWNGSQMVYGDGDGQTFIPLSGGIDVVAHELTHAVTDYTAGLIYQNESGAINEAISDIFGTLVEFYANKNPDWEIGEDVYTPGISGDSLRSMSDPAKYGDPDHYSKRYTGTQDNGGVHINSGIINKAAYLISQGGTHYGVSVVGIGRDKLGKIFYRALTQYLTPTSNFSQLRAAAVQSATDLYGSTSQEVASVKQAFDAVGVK
Test: Inhibitory constant against thermolysin.

SMILES	Ki
CC(C)C[C@H](NC(=O)[C@H](CC(C)C)NC(=O)CN(C(=O)OCc1ccccc1)P(=O)(O)O)C(=O)O	0.0091 µM
CC(C)C[C@H](NC(CCCc1ccccc1)C(=O)O)C(=O)N[C@@H](Cc1c[nH]c2ccccc12)C(=O)O (some centres not stated)	0.05 µM
O=C(O)CC(=O)N[C@@H](CS)Cc1ccccc1	2.3 µM
C[C@H](NC(=O)C(CS)Cc1ccccc1)C(=O)NCC(N)=O (some centres not stated)	0.75 µM
CC(C)C[C@H](NP(=O)(O)O)C(N)=O	21.3 µM
CC(C)C[C@H](NP(=O)(O)O[C@@H]1O[C@@H](C)[C@H](O)[C@@H](O)[C@H]1O)C(=O)N[C@@H](Cc1c[nH]c2ccccc12)C(=O)O [PHOSPHORAMIDON]	0.028 µM
O=C(O)CNC(=O)C(CS)Cc1ccccc1 (configuration not stated) [THIORPHAN]	1.8 µM
